A short description of series [1]: Dichlorofluorescein assay (reactive oxygen species formation with Fe2+). The settings on record: for reactive oxygen species formation, DCF fluorescence: 20 μM, Fe2+ 5-25 μM, 10 μM DCFH-DA, 30 min. Here is the method:
The assay was carried out following a reported procedure either in presence of hydrogen peroxide, Artesunate with and without Fe2+, and ART-HER2 conjugate with and without Fe2+[43]. In this assay non-fluorescent DCFH-DA (2′, 7′-Dichlorofluorescin diacetate treated with methanol and NaOH, as described in reference 43) is converted to a fluorescent derivative, known as dichlorofluorescein (DCF), in presence of an oxidizing agent (e.g. reactive oxygen species). By quantifying the concentration of fluorescent DCF, the concentration of oxidizing agent can be determined.
Formation of free radical species from the reaction of Artesunate with […] was additionally measured by dichlorofluorescein assays. Oxidation of 2′, 7′-Dichlorofluorescin diacetate (DCFH-DA) by reactive oxygen species generates dichlorofluorescein, which is fluorescent (˜520 nm).

Series [2] is described as follows: MTT assay, Caco-2 cells (HER2-positive). On the procedure:
(§1) CCD-18 cells were maintained in Dulbecco's minimal essential medium (DMEM, ATCC) supplemented with 10% fetal bovine serum (FBS, ATCC), 100 U/ml penicillin G, and 100 μg/ml streptomycin at 37° C. in a humid atmosphere of 5% CO2 atmosphere. Caco-2 cells were maintained in Dulbecco's minimal essential medium (DMEM, ATCC) supplemented with 20% fetal bovine serum (FBS,ATCC), 100 U/ml penicillin G, and 100 μg/ml streptomycin at 37° C. in a humid atmosphere of 5% CO2 atmosphere; culture medium was replaced with a fresh medium every 2-3 days. All experiments were performed with actively growing cells in logarithmic growth phase.
(§2) The assay was carried out following a reported procedure. In brief, approximately 1,000 to 5,000 cells were plated per well in 96-well plate. The plates were incubated at 37° C. for 48 or 72 hours in a humidified, 5% CO2 atmosphere. Cells were incubated either with Artesunate or with ART-HER2 conjugate at various concentrations. To measure mitochondrial activity, a metric for cell viability, 15 μL of [3-{4, 5-dimethylthiazol-2-yl)-2, 5-diphenyltetrazolium bromide (MTT) was added to each well and incubated at 37° C. for 4 hours in a humidified, 5% CO2 atmosphere. After incubation, 100 μl of the solubilization solution/stop mix was added to each well. The blue formazan product formed by reduction of MTT by mitochondrial dehydrogenase in viable cells was then measured by absorbance at 570 nm.
(§3) The cytotoxicity of Artesunate was then investigated with two human colon cell lines, a normal colon cell line CCD-18 and a cancerous colon cell line Caco-2, using the well-established MTT assay. […] Dose-dependent assays were performed in 96-well format and IC50 values were determined by plotting the cell viability against Artesunate concentration (FIG. 11 and FIG. 12).
Background: Tetrazolium dyes change colour on reduction, which living cells bring about.

The conditions of series [3]: reference [50]; cell line not given; read-out: IC50, anticancer ability of commonly used anticancer drugs; cited from earlier work.
The nature of series [4]: MTT assay, CCD-18 cells (HER2-negative normal colon). The settings on record: human, CCD-18 cells (normal colon, HER2-negative). On the procedure:
as §1
The assay was carried out following a reported procedure. In brief, approximately 1,000 to 5,000 cells were plated per well in 96-well plate. The plates were incubated at 37° C. for 48 or 72 hours in a humidified, 5% CO2 atmosphere. […] The blue formazan product formed by reduction of MTT by mitochondrial dehydrogenase in viable cells was then measured by absorbance at 570 nm.
as §3

Series [5] in a line: Deoxyribose degradation assay (free radical formation with Fe2+). The following applies: 200 μM, Fe2+ 5-25 μM, 10 minutes. Here is the method:
This assay quantifies the formation of hydroxyl radicals or peroxyl radicals. The assay was carried out following a reported procedure. Briefly, 500 μL reaction volumes containing 10 mM 2-deoxyribose, 100 μM ascorbic acid, and various concentrations of Fe2+ were prepared. Degradation of 2-deoxyribose was initiated either by addition of 200 μM of hydrogen peroxide or 200 μM of Artesunate. The reaction was allowed to run for 10 minutes and then stopped by the addition of 500 μL of 10% (w/v) trichloroacetic acid (TCA) followed by 0.5 mL 1% 2-thiobarbituric acid (TBA). After heating at 80° C. for 15 minutes, the absorbance at 532 nm was measured.
To measure the concentration of free radical species generated by Artesunate reacting with Fe^2+, 2-deoxyribose degradation assays were formed (FIG. 6). Degradation of 2-deoxyribose by action of hydrogen peroxide is shown as a positive control and 2-deoxyribose alone is shown as a negative control (FIG. 6).

Another series concerns HCT116 cells. Briefly: Sulforhodamine B (SRB) colorimetric assay, HCT116 proliferation. It counts as cell-based. The following applies: Homo sapiens, HCT-116, 96-well format, read-out: IC50, inhibition of the proliferation of HCT116 cells. On the procedure:
Mouse B16-F10 melanoma cancer cells and human HCT116 colon cancer cells were grown in culture respectively in DMEM medium or McCoy's 5 A medium supplemented with 10% fetal bovine serum and 5% antibiotic in a 5% CO2 atmosphere at 37° C. Cultures were divided 1:2 every 48 h to an approximate cell density of 1.2 million cells per ml and used for experiments after 24 hours of growth in culture.
(In general: In SRB staining, fixed cells bind dye roughly in proportion to their protein.)

The next series deals with Caco-2 cells. Nature of the series: MTT assay, Caco-2 cells (HER2-positive). Here is the method: as §1, §2, §3

pIC50: −log10 of the molar value. Where two headings read alike, the source gives them in different places. Residues, ends and D or L forms follow the SMILES beside them. *: point of attachment. X1 = C[C@H]1[C@H](OC(=O)CCC(=O)*)O[C@@H]2O[C@@]3(C)CC[C@H]4[C@H](C)CC[C@@H]1[C@@]24OO3

Regarding `OO` [H2O2, hydrogen peroxide], the “reactive oxygen species formation, DCF fluorescence” value in series [1] is given as “Fe^2+-dependent activation of dichlorofluorescein fluorescence”.

For the compound `CC(C)C[C@H](NC(=O)[C@H](CO)NC(=O)[C@H](Cc1ccc(O)cc1)NC(=O)[C@H](CS)NC(=O)[C@H](CS)NC(=O)[C@H](CCCCN)NC(=O)CNC(=O)[C@H](CO)NC(=O)CNC(=O)CCC(=O)O[C@@H]1O[C@@H]2O[C@@]3(C)CC[C@H]4[C@H](C)CC[C@@H]([C@H]1C)[C@@]24OO3)C(N)=O` [ART-HER2 conjugate] (X1-GSGKCCYSL-NH2), the “free radical species formation in presence of Fe2+ (in words)” value in series [1] (2-deoxyribose degradation and dichlorofluorescein assays, increasing Fe2+) is “increases in presence of increasing levels of Fe^+”. In series [2], this compound gave a pIC50 of around 4.82.

As for `N.N.O=C([O-])C1(C(=O)[O-])CCC1.[Pt+2]` [carboplatin], the pIC50 in series [3] was around 4.92.

With `C[C@H]1[C@H](OC(=O)CCC(=O)O)O[C@@H]2O[C@@]3(C)CC[C@H]4[C@H](C)CC[C@@H]1[C@@]24OO3` [Artesunate], the pIC50 in series [4] is around 5.25; in the series on HCT116 cells, around 6.20; in the series on Caco-2 cells (Homo sapiens, Caco-2, read-out: IC50, cytotoxicity against Caco-2 cells), around 6.01. The “reactive oxygen species formation, DCF fluorescence” value in series [1] is “Fe^2+-dependent activation of dichlorofluorescein fluorescence”. Further, the “free radical generation, 2-deoxyribose degradation (absorbance 532 nm)” value in series [5] is “reacts with Fe^2+ to generate free radical species that are sufficient to degrade 2-deoxyribose”. The “fold higher toxicity against Caco-2 cells compared to CCD-18 cells” value in the series with Caco-2 cells (Caco-2) was around 5.7 fold.

As for `O=c1[nH]cc(F)c(=O)[nH]1` [5-FU, 5-fluorouracil], the pIC50 in series [3] was around 4.82.
